# Measured values published in patent US10744127B2, “MDR-reversing 8-hydroxy-quinoline derivatives” (MAGYAR TUDOMÁNYOS AKADÉMIA TERMÉSZETTUDOMÁNYI KUTATÓKÖZPONT, priority 2016, dated 2020).
# Like-named read-outs stand apart in the source and are kept apart here.
# Columns and labels:
# [1] = test system: primary cells from doxorubicin resistant brca1-/-/p53-/- spontaneous mouse mammary carcinoma; experiment: Calcein assay of functional P-gp in primary tumor cells from doxorubicin resistant mammary carcinoma; format: cell-based; conditions: single treatment, calcein assay (FIG. 4D)
# Text: Tumor pieces derived from Brca1−/−;p53−/− FVB mouse mammary tumors were transplanted orthotopically into the mammary fat pad of wild type FVB mice.
# As described by Rottenberg et al. (Pajic et al. 2009), treatment with several cycles of the maximum tolerable dose of doxorubicin invariably lead to drug resistance mediated by the moderate upregulation of Mdr1a and/or Mdr1b (FIG. 4A). Primary cultures from resistant tumors were established. In just 10 passages the culture was depleted of stromal components (FIG. 4B).
# Functional expression of P-gp in the primary cells was evaluated by the calcein assay.
# MES-SA cell line = experiment: Cytotoxicity, PrestoBlue cell viability assay, parental MES-SA; format: cell-based; conditions: Homo sapiens; parental MES-SA cell line (Table 2a)
# Method: (§1) The human uterine sarcoma cell line MES-SA and its doxorubicin resistant counterpart MES-SA/Dx5 were obtained from ATCC (MES-SA: No. CRL-1976™, MES-SA-Dx5: No. CRL-1977™). MES-SA/Dx5 cells express high levels of P-gp, and therefore are multidrug resistant (MDR). Cells were cultured in DMEM supplemented with 10% FBS, 5 mmol/L glutamine and 50 unit/mL penicillin and streptomycin (Life Technologies).
# (§2) Cell survival was measured by the PrestoBlue® Cell Viability Reagent (Life Technologies, USA). Cells were seeded in 100 μl medium at a density of 5000 cells/well in 96-well plates; the serially diluted drug was added the following day. Cells were then incubated for 72 hours at 37° C. in 5% CO2; the drug containing medium was removed, and the PrestoBlue® reagent was added according to the manufacturer's instructions. Fluorescence of the cells was measured by a Perkin Elmer EnSpire multimode plate reader or Perkin Elmer Victor X3 microplate reader. Data were background corrected and normalized to untreated cells. Curves were fitted with the help of Prism software using the sigmoidal dose-response model. Curve fit statistics were used to determine IC50 values. Differences between the IC50 values of the respective cell lines were analyzed by two-sided […] unpaired Student's t test and results were considered statistically significant at a P value of <0.05 (*) or 0.01 (**).
# MES-SA/Dx5 cells = experiment: Sensitivity of MES-SA/Dx5 cells to doxorubicin after a single treatment; format: cell-based, human; conditions: after treatment with a single dose (FIG. 3)
# Text: The above treatment with compounds of the general Formula I results in a new, stable phenotype, with the complete resensitization of cells to conventional chemotherapy consisting of P-glycoprotein substrates such as doxorubicin (FIG. 3).
# Curves show the sensitivity of MES-SA/Dx5 cells (P-gp overexpressing cell line established from MES-SA) to doxorubicin before and after treatment with a single dose of a state of the art compound (NSC693872) and two compounds relating to this invention (Example compounds No. 9 and No. 17). The sensitivity of MES-SA cells is shown as a reference (P-gp-negative parental cell line). […] (Values indicate the IC50 values (μM) derived from the cytotoxicity curves).
# MES-SA/Dx5 cell line = experiment: Cytotoxicity, PrestoBlue cell viability assay, MES-SA/Dx5; format: cell-based; conditions: Homo sapiens
# Method: as §1, §2
# [2] = test system: P-gp-expressing MES-SA/Dx5 cells; experiment: P-gp switch assay (Calcein AM); format: cell-based, human; conditions: MES-SA/Dx5, single dose at IC20 (killing 80% of the cells), surviving population at 80% confluence, Calcein AM
# Method: One million P-gp-expressing MES-SA/Dx5 cells were plated in a T25 cell culture flask. After 24 hours the compound of interest was added directly to the cells at a concentration corresponding to the IC20 value (killing 80% of the cells). After 5 days the culture media was removed, the cells were washed with PBS and the culture medium was exchanged. Cells were monitored daily and the recovery was recorded. The medium was changed every 5 days until the confluence of the cells reached 80%. At 80% confluence the cells were removed by gentle trypsinization, counted by an automated cell counter and stained with Calcein AM, a cellular dye able to detect the function of P-gp (Homolya 1993). P-gp-positivity was evaluated based on the ability of P-gp-expressing cells to extrude Calcein AM.
# [3] = test system: MES-SA and MES-SA/Dx5 cells; experiment: Selective toxicity in the presence of the P-gp inhibitor tariquidar; format: cell-based, human; conditions: selectivity ratio in the presence of tariquidar (1 μM)
# Method: In the presence of tariquidar (an inhibitor of P-gp function), the toxicity of the compounds selectively diminishes in multidrug-resistant MES-SA/Dx5 cells, while the toxicity is unchanged against parental MESSA cells, which is reflected by a decrease in the selectivity ratio (SR (TQ)).
# To investigate the contribution of P-glycoprotein to the cytotoxic effect of a compound, cell survival was measured in the presence of the P-glycoprotein inhibitor tariquidar (1 μM). Tariquidar (CAS 206873-63-4) can be obtained e.g. from Selleck, Houston, USA.
# [4] = test system: MDCK II and MDCK II B1 cell lines; experiment: Selective toxicity towards MDCK II and MDCK II B1 cell lines; format: cell-based, canine; conditions: MDCK II versus MDCK II B1
# Method: as §2
# Data on selective toxicity (expressed as Selectivity Ratio, SR) in two MDR models engineered by retroviral transfection of P-glycoprotein (A431/A431-B1 and MDCK II/MDCK II B1 cell lines) are presented in Table 3 and Table 4.
# A431 is a human epidermoid carcinoma cell line. Its derivative, the A431-B1 cell line expresses P-gp due to retroviral transfection of the mdr1 gene Türk, D. et al (Türk, D. et al., 2009). MDCK II is a canine kidney cell line. MDCK II B1 was created by inserting the mdr1 gene with transposons [Pape V F S et al. 2015] Both cell express P-gp stably, and show a stable MDR phenotype. Culture conditions were identical as in the case of MES-SA cells.
# [5] = test system: MES-SA and multidrug-resistant MES-SA/Dx5 cell line; experiment: Selective toxicity (ratio of IC50 in MES-SA to IC50 in MES-SA/Dx5) and activity index; format: cell-based, human
# Text: Compounds having P-gp potentiated MDR-selective activity can be characterized by their inhibitory concentration (IC) with regard to a specific cancer cell line. Usually the IC value is given at a certain percentage ratio of non-inhibited molecules or surviving cells. For example an IC20 value of a compound on a cell line means that at this inhibitory concentration of the compound 80% of the cells are killed whereas 20% of the cells are still viable. A further characteristic of MDR-selective drugs is the selectivity ratio (SR), which is the ratio of the IC value measured in a non-multidrug resistant cell line to (i.e. divided by) the IC value measured in the corresponding transformed, multidrug-resistant cell line. The inverse value, the resistance ratio (RR) is calculated as the ratio of a compound's IC value against a multidrug resistant cell line divided by the parallel IC value of the same compound against a control non-multidrug resistant cell line. The Activity Index (AI) is calculated here as the ratio of the compound's selectivity ratio (SR) and the compound's IC50 value against the resistant cell. The AI reflects the level of simultaneous toxicity and selectivity towards multidrug-resistant cancer cells.
# as §1, §2
# Selectivity towards multidrug-resistant cells is expressed as the ratio of the IC50 value measured in the parental MES-SA and multidrug-resistant MES-SA/Dx5 cell line (Selectivity Ratio, SR).
# A novel characteristic of the compounds presented in this invention is that they exert their selective cytotoxicity at low IC50 values. Simultaneous toxicity and selectivity towards multidrug-resistant cancer cells is reflected by the Activity Index (AI) of the compounds, which is the ratio of the selectivity ratio (SR) and the IC50 value on the resistant cell line.
compound,measurement,setting,value
"COc1ccc(CNCc2cc(Br)c3cccnc3c2O)c(OC)c1 [Example 9, 5-Bromo-7-(((2,4-dimethoxybenzyl)amino)methyl)quinolin-8-ol]",P-gp efflux capacity of primary tumor cells,[1],efflux capacity of the cells could be eradicated by a single treatment
same,IC50,MES-SA cell line,2260 nM
same,melting point,,146 to 148 °C
same,Resensitization of MES-SA/Dx5 cells to doxorubicin,MES-SA/Dx5 cells,sufficient to resensitize MES-SA/Dx5 cells to doxorubicin
same,IC50,"MES-SA/Dx5 cell line; MES-SA/Dx5 (Table 2b), read-out: IC50 (μM) Dx5",0.12 µM
same,IC50,"MES-SA/Dx5 cell line; Mes-sa/Dx5 cell line, PrestoBlue assay, 72 hours (Table 1), read-out: IC50",0.118 µM
same,IC50,"MES-SA/Dx5 cell line; multidrug-resistant MES-SA/Dx5 cell line (Table 2a), read-out: IC50 (nM) in MES-SA/Dx5 cell line",0.118 µM
same,Fraction of P-gp-negative cells (P3) in the population,[2],99.0%
same,Fraction of P-gp-positive cells (P4) in the population,[2],1.0%
same,SR (TQ),[3],1.8
same,Selectivity Ratio (SR) (MDCK II/MDCK II B1),[4],16.8
same,SR,[5]; MES-SA / MES-SA/Dx5 (Table 2b),20.4
same,SR,"[5]; MES-SA / MES-SA/Dx5, without tariquidar (Table 5)",20.4
